# Reference: article PMC6095608 (PLoS ONE, 2018)
# Assays:
# OCT2 = molecular target: T1, OCT2 (Homo sapiens, UniProt O15244); test: Inhibition of net [14C]-metformin uptake in MDCK-OCT2 cells; assay type: cell-based; conditions: 50 μM metformin, 5 min, pH 7.4, efavirenz 0.01–50 μM, read-out: IC50, inhibition of net OCT2-mediated [14C]-metformin uptake
# T1 construct: expressed in transfected cells; host or cells: MDCKII (MDCK-OCT2)
# T1 sequence (O15244 1-555): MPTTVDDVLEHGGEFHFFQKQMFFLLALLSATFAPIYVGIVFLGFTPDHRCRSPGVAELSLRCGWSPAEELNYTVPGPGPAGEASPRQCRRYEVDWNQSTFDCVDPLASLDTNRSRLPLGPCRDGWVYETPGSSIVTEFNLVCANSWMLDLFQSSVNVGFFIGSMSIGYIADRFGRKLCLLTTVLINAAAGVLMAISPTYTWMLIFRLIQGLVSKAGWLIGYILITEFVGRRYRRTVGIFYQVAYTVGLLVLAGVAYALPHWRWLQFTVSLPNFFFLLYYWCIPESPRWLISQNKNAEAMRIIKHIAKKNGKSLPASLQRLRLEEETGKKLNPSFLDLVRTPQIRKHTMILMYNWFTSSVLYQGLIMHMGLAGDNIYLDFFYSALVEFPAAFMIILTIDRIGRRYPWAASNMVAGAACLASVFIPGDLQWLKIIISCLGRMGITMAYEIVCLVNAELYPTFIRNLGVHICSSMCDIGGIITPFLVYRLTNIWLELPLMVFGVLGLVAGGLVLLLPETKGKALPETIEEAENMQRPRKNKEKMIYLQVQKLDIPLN
# Description: The singly-transfected OCT1, OCT2, MATE1 or control MDCK cells were seeded on 12-well plates at a density of 0.5 x 10^6 cells per well and cultivated in standard cultivation medium MEM (Gibco) + 10% FBS. Forty-eight hours after seeding, uptake experiments with radiolabelled metformin were performed. Cells were washed with 500 μl pre-warmed HBSS buffer of pH 7.4 (for OCTs) or 8.0 (for MATE1). Solutions of [^14C]-metformin (50 μM) in HBSS buffer of pH 7.4 or 8.0 with or without efavirenz were then added, and the resulting mixtures were left to stand for an accumulation period of 5 minutes. […] After the accumulation period, the solutions were aspirated and the cells were washed three times with 500 μl ice-cold HBSS buffer of pH 7.4 or 8.0 before being lysed with 0.02% sodium dodecyl sulphate (SDS). The intracellular accumulation of radioactivity was detected using a liquid scintillation counter (Tri-Carb 2910 TR Perkin Elmer), and protein concentrations in the cell lysates were measured by the BCA protein assay. Net transporter-mediated uptake was obtained by subtracting the accumulation of metformin in vector control cells from that in drug transporter-overexpressing cells.
# A p value of ≤ 0.05 was considered statistically significant. […]
# OCT1 [1] = molecular target: T2, OCT1 (Homo sapiens, UniProt O15245); test: Transcellular transport assay across MDCK-OCT1 monolayers; assay type: cell-based; conditions: 10 μM efavirenz, 2 h
# T2 construct: expressed in transfected cells; host or cells: MDCKII (MDCK-OCT1)
# T2 sequence (O15245 1-554): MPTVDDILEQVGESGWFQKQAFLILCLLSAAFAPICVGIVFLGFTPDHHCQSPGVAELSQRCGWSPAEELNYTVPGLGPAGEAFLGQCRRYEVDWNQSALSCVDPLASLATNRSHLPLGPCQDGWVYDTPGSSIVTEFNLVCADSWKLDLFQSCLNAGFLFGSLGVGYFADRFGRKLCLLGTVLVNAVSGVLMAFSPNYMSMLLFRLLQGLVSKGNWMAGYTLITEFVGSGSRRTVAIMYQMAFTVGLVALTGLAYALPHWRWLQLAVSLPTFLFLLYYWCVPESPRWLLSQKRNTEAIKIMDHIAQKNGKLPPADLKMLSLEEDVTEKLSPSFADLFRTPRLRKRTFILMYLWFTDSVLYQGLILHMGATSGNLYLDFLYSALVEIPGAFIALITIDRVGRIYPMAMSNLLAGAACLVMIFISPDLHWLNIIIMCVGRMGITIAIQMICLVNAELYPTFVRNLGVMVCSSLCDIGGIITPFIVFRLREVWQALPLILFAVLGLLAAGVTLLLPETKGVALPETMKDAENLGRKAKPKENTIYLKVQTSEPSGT
# Description: Transport experiments employing polarized monolayers of MDCK-OCT1, MDCK-OCT2, or MDCK-MATE1 cell lines as well as doubly transfected MDCK-OCT1-MATE1 or MDCK-OCT2-MATE1 lines and the non-transfected parental control MDCK-Co cells grown on Transwell 3402 cell culture inserts (3.0 μm pore size, 24 mm diameter; Costar, Corning, NY) were performed as described previously. The number of cells per well was 0.5 x 10^6 in all experiments, and the cells were incubated for 3 days to confluence in standard cultivation medium MEM (Gibco) + 10% FBS. After 3 days’ cultivation, medium was removed from both sides and the cells of the monolayer were washed using pre-warmed PBS. […] The pH of the medium on the basolateral side was 7.4, while that on the apical side was set to 6.0 (adjusted by adding HCl or NaOH, when necessary) to ensure optimal MATE1 transport activity. Cells were incubated at 37°C in 5% CO2 for 2 hours. At the end of the incubation period, 50 μl aliquots were sampled and the rest of the medium was immediately removed. The cells were then washed twice with ice-cold PBS, the membranes supporting cellular monolayers were excised, and the cells were dissolved in a 0.02% SDS solution. The radioactivity of the collected samples and lysed monolayers was measured by liquid scintillation counting (Tri-Carb 2910 TR Perkin Elmer), and the protein concentration of the cell lysates was quantified using the BCA protein assay. Transport rates were recorded in pmol per mg protein in the cellular monolayer.
# OCT1 [2] = test system: OCT1; parameters: method as in PMID 25914645; conditions: OCT1-overexpressing KCL2 cells, 50 μM efavirenz; cited from earlier work
# [3] = parameters: method as in PMID 16141277; conditions: humans, plasma proteins; cited from earlier work
# [4] = parameters: method as in earlier work; conditions: clinical; lamivudine 150 mg twice daily with efavirenz 600 mg once daily; cited from earlier work
# MRP2 = MRP2 (Homo sapiens, UniProt Q92887); test: Calcein efflux assay in MDCK-MRP2 cells
# Sequence of MRP2 (Q92887 whole entry): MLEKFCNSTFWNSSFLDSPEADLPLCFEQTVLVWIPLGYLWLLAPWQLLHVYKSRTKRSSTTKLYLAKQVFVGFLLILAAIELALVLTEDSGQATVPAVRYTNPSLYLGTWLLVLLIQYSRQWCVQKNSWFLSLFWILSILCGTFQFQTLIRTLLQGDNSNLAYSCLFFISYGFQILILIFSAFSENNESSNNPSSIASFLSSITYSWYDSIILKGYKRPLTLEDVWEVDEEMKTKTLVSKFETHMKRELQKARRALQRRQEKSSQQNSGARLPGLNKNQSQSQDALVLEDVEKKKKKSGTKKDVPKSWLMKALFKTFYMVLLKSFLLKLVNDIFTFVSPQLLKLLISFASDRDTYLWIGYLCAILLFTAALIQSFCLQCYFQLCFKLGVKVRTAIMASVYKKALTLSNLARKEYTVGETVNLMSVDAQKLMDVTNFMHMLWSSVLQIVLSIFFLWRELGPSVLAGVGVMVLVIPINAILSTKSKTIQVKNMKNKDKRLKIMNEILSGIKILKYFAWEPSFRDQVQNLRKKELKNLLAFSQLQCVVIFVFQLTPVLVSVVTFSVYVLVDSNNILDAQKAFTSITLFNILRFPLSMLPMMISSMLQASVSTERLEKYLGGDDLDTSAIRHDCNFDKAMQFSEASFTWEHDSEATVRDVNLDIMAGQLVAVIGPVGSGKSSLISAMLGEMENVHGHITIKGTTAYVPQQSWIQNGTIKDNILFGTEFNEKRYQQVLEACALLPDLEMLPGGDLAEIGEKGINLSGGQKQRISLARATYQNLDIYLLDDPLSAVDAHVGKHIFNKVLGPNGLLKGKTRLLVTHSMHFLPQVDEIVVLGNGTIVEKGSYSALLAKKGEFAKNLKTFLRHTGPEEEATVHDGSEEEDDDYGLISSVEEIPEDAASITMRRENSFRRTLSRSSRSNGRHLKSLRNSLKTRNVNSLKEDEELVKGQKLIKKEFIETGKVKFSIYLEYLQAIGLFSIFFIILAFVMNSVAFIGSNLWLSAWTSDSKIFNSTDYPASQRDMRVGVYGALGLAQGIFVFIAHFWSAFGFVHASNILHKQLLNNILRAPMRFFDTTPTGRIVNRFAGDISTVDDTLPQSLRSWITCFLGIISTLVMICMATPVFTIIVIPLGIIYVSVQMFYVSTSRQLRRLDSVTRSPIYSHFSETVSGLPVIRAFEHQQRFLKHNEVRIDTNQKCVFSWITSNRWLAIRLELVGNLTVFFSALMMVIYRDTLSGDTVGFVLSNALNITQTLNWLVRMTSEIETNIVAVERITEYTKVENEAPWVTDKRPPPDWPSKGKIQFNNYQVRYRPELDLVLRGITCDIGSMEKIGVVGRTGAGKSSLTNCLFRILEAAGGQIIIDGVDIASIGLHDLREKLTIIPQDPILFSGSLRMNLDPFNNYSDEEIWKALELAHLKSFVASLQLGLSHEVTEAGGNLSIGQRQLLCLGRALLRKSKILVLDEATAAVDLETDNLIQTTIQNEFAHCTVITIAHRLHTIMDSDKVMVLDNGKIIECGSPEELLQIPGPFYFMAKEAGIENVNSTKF
# Description: ABC transporter-expressing MDCK cells were seeded in 96-well plates at a density of 25 x 10^3 cells per well and cultivated in DMEM medium supplemented with 10% FBS. Forty-eight hours after seeding, the cells were used in accumulation experiments with Hoechst 33342 (a common fluorescent substrate of MDR1 and BCRP) or efflux assays with Calcein (a fluorescent substrate of MRP2). Briefly, at the end of the 48 hours, the medium was aspirated and the cells were washed with pre-warmed PBS and then preincubated with efavirenz in Opti-MEM for 30 minutes. In the Hoechst 33342 assays, a solution of Hoechst 33342 (50 μg/ml) in Opti-MEM was added and allowed to accumulate for 30 minutes. The experiment was stopped by aspirating the medium and washing the cells twice with ice cold PBS. Intracellular fluorescence was then measured using excitation and emission wavelengths of 350 nm and 465 nm, respectively. In the calcein efflux assays, a solution of calcein AM in Opti-MEM with or without efavirenz was added after the pre-incubation phase and allowed to accumulate for 15 minutes. […] Calcein fluorescence was measured using excitation and emission wavelengths of 496 nm and 516 nm, respectively.
# Statistical analyses were performed using GraphPad Prism, version 7.03 (GraphPad Software, San Diego, CA). P values were calculated using multiple two-tailed t-tests or one-way ANOVA followed by Dunnett’s or Bonferroni’s multiple comparison test, as appropriate. […] The half-maximal inhibitory concentration (IC50) was calculated by non-linear regression analysis using sigmoidal Hill kinetics.
# Model inhibitors of MDR1, BCRP and MRP2, namely LY335979 (LY, 1 μM), Ko143 (2.5 μM), and MK571 (10 μM), respectively, were used as positive controls at the minimal concentrations causing maximal inhibition in the corresponding cellular system and assay. […] Data were analyzed by one-way ANOVA followed by Bonferroni’s multiple comparison test (* P ≤ 0.05, ** P ≤ 0.01, *** P ≤ 0.001) and are presented as means ± SD of at least three experiments (n = 3–5) performed in triplicate.
structure (smiles),measurement,setting,value
"O=C1Nc2ccc(Cl)cc2[C@@](C#CC2CC2)(C(F)(F)F)O1 [efavirenz, Efavirenz]",IC50,OCT2,5.66 µM
same,Effect on basolateral-to-apical transport of [3H]-MPP+,"OCT1 [1]; 2 nM MPP+, MDCK-OCT1",Inhibition
same,Effect on intracellular accumulation of [3H]-MPP+,"OCT1 [1]; 2 nM MPP+, MDCK-OCT1 monolayers",significantly reduced
same,Effect on intracellular accumulation of [3H]-lamivudine,"OCT1 [1]; 10 nM lamivudine, MDCK-OCT1",significantly reduced
same,Effect on transcellular transport of [3H]-lamivudine,"OCT1 [1]; 10 nM lamivudine, basal to apical, MDCK-OCT1",significantly inhibited
same,Reduction in tetraethylammonium accumulation,OCT1 [2],50.0%
same,Median unbound percentage,[3],0.63%
same,Effect on lamivudine AUC,[4],no effect
same,Effect on lamivudine Cmax,[4],no effect
same,Increase of lamivudine Cmin,[4],265%
same,IC50,"MRP2; MRP2 absolute IC50, calcein efflux, control inhibitor MK571 10 μM = 100%",4.9 µM
same,IC50,"MRP2; MRP2 relative IC50, calcein efflux, maximal inhibition by efavirenz alone = 100%",1.6 µM
same,Concentrations inhibiting the MRP2 drug transporter,MRP2; calcein AM 0.25 μM efflux assay,≥ 1 µM
